Literature values in US20090304721A1, “TOXIN […] RECEPTOR ANTIBODIES” (priority 2005, published 2009).

Details: compared with vincristine and vinblastine; cited from earlier work

## COc1cc2cc(c1Cl)N(C)C(=O)C[C@H](OC(=O)[C@H](C)N(C)C(C)=O)[C@]1(C)O[C@H]1[C@H](C)[C@@H]1C[C@@](O)(NC(=O)O1)[C@H](OC)/C=C/C=C(\C)C2 [Maytansine]
  cytotoxicity in vitro relative to vinca alkaloids: 200 to 1,000 fold
